“Also recorded” adds a separate entry of the source.
Experiments:
[1] = test system: Hepa1-6 cell line; experiment: Mitochondrial membrane potential (ΔΨm), TMRE fluorophore; type: cell-based; conditions: FIG. 1b; for reduce ΔΨm: Hepa1-6, exposure 24 h; for Emax at 1 µM: Mus musculus, Hepa1-6, concentration of 1 μM, read-out: decrease of normalized ΔΨm, maximum response
Procedure: (§1) The tested compounds were dissolved in DMSO at a concentration of 100 mM and further diluted in PBS supplemented with 10% (v/v) DMSO. When necessary dissolution was enhanced by incubation at 50° C. and sonication at maximum output for 10 min. Hepa1.6 cell line (#CRL-1830, ATCC) was cultured in DMEM culture medium containing 1 g L^−1 glucose, 10% fetal bovine serum, 2 mM glutamine, 100 U mL^−1 Penicillin and 100 μg mL^−1 Streptomycin and 30 μM oleic acid. Cells were seeded at a density of 20000 cells per well in 96 well plates and incubated for several hours to allow the cells to attach at 37° C. with 5% CO2. Cells were then supplemented with the test substances at indicated concentrations (0.01-50 μM) and incubated for indicated time periods (24-48 h).
(§2) For all assays the tested substances were further diluted in 10% DMSO/PBS and added to the cells at the indicated concentrations with a final DMSO concentration of 0.01%. Negative vehicle controls were treated with 0.01% DMSO. Positive control was treated with 10 μM oligomycin or 10 μM FCCP (Carbonyl cyanide-4-(trifluoromethoxy) phenylhydrazone).
Mitochondrial membrane potential (ΔΨm) was assessed using the tetramethylrhodamine (TMRE) fluorophore. The cells were incubated with the test substances for 24 h and then loaded with TMRE at a final concentration of 200 nM for 45 min at 37° C. Positive control wells were treated with 10 μM FCCP 30 min before loading the cells with TMRE. The medium was removed and the cells were washed with PBS and supplemented with fresh culture medium. Fluorescence intensity of TRME was immediately measured (ex/em: 545/580 nm) using a plate reader spectrophotometer. The results were normalized to the fluorescence intensity measured in mock treated negative controls and the positive controls treated with 10 μM FCCP.

[2] = test system: Hepa1-6 cell line; experiment: Cytotoxicity (Pierce LDH Cytotoxicity Assay Kit); type: cell-based; conditions: Hepa1-6, FIG. 1e
Procedure: as §1, §2
Cytotoxicity was assessed using the Pierce LDH Cytotoxicity Assay Kit (#88953, Thermo Fisher). […] Absorbance was measure at 490 nm and background at 680 nm. […] Cytotoxicity was expressed as the percentage of maximum signal intensity observed in freshly lysed cells.

[3] = test system: Hepa1-6 cell line; experiment: Cellular ATP content (CellTiter-Glo Assay); type: cell-based; conditions: Hepa1-6, exposure 24 h, FIG. 1a
Procedure: as §1
For all assays the tested substances were further diluted in 10% DMSO/PBS and added to the cells at the indicated concentrations with a final DMSO concentration of 0.01%. […]
Cells were treated for 24 h with the test substances at the indicated concentrations. The cellular ATP content was assessed using the CellTiter-Glo Assay (#G7571, Promega) as per the manufacturer's instructions. Luminescence was detected in a plate reader spectrophotometer. The results were normalized to the luminescence intensity measured in mock treated negative controls and the positive controls treated with 10 μM oligomycin.

[4] = test system: isolated T cells; experiment: Activation induced proliferation of isolated T cells, Cytopainter flow cytometry; type: cell-based, C57BL/6J mice; conditions: 2f
Procedure: (§3) Spleen and lymph nodes were collected from C57BL/6J mice and stored in RPMI medium on ice until further processing. Further procedures were performed using a laminar flow hood. Single cell suspensions were created by shearing the organs between two microscopy slides. Cell suspensions were passed through a 70 μm cell strainer to exclude remaining tissue chunks. Cells were washed in PBS and centrifuged at 300 g for 5 min at 4° C. During the preparation of splenic single cell suspension, erythrocytes were removed by incubating the cells for 5 min at rt in RBC lysis buffer followed by extensive washing in PBS. Cells were resuspended in RPMI medium and cell count was determined. Lymphocytes were kept on ice until further use.
T cell was enriched from the splenocytes by negative selection using magnetic bead separation (Pan T cell isolation kit II, mouse, #130-095-130, Miltenyi) achieving more than 90% purity. The cells were kept in RPMI medium until further use.
(§4) A total 17×10^6 cells were suspended in 15 mL Krebs Ringer buffer (with HEPES, 1 g L^−1 glucose, 1 mM pyruvate), supplemented with 30 μL of Cytopainter blue stock solution (500×) (#ab176726, Abcam) and incubated for 30 min at 37° C. to let the CFSE analog accumulate in the cells. The remaining Cytopainter reagent that was not incorporated into the cells was quenched by addition of 10 mL FCS and incubated for 5 min at rt. Another 25 mL of PBS were added and cells were centrifuged at 300 g for 5 min at rt. The cells were then suspended in 12.75 mL of complete RPMI culture medium. 2×10^5 cells in a volume of 150 μL were added to the wells of 96 well plates. The cytopainter-loaded cells were supplemented with the test substances, or DMSO as a negative control and oligomycin as a positive control.
Cytopainter loaded T cells were stimulated using two different approaches. Either T cells stimulated by plate bound anti-CD3 antibodies (coated at 1 μg/mL) and soluble anti-CD28 antibodies (at a final concentration of 0.2 μg mL^−1), or in separate replicates by addition of the cytokines IL-2 (50 ng mL^−1) and IL-7 (10 ng mL^−1) to stimulate T cells proliferation and survival.
(§5) Cell proliferation was then analyzed by assessing the fluorescence intensity of cytopainter in the cells by flow cytometry. Reduced intensity of cytopainter dye indicates cells that have undergone cell division. Data was analyzed using FlowJo v10.4.2. Proliferation parameters were derived using the FlowJo Proliferation Tool. The Expansion index determines the fold-expansion of the overall culture. The Division index expresses the average number of cell divisions that a cell in the original population has undergone and also includes the cells that have never divided.

[5] = test system: Hepa1-6 cell line; experiment: BrdU incorporation/cell proliferation assay; type: cell-based; conditions: for suppression of cells proliferation: Hepa1-6, exposure 48 h, FIG. 1d
Procedure: as §1, §2
Cells were incubated for a total of 48 h with the tested substances. During the last 12 h the cells were supplemented with 200 μM BrdU (#ab126556, Abcam). After the incubation period cells were washed with PBS. Following that the cells fixed and permeabilized using the reagents of the kit and labeled for 1 h with anti-BrdU antibodies conjugated with peroxidase. After washing the fixed cells 5 times with PBS the wells were incubated with peroxidase substrate TMB. The reaction was stopped after 30 min. The signal intensity was measure at absorbance 450 nm. Results were normalized to controls samples treated with vehicle (0.01% DMSO, negative control) or 10 μM oligomycin.

[6] = test system: CD3+ T lymphocytes; experiment: Activation induced proliferation of lymphocytes (PMA/Ionomycin), Cytopainter flow cytometry, T cells; type: cell-based, C57BL/6J mice; conditions: stimulation with PMA/Ionomycin; for division index of T-cells: FIG. 2a; for expansion index of T-cells: FIG. 2b
Procedure: as §3, §4
(§6) Cytopainter loaded lymphocytes were stimulated with PMA (15 ng mL^−1) and Ionomycin (0.5 μg mL^−1). All cells were incubated for 60 h at 37° C., 5% CO2. Lymphocytes were then washed with 2% FBS in PBS, supplemented with anti-CD16/CD32 antibodies (to block unspecific Fc-receptor binding) and incubated for 10 min at 4° C. Subsequently cells were incubated for 20 min at 4° C. with anti-CD3 antibodies conjugated to FITC (clone: 145-2C11, #11-0031-82, eBioscience) and anti-B220 antibodies conjugated to PerCP-Cy5.5 (clone:RA3-6B2, #45-0452-82, eBioscience) to label T cells and B cells, respectively. Cells were subsequently washed with 2% FBS in PBS analyzed.
as §5

[7] = test system: B220+ B lymphocytes; experiment: Activation induced proliferation of lymphocytes (PMA/Ionomycin), Cytopainter flow cytometry, B cells; type: cell-based, C57BL/6J mice; conditions: stimulation with PMA/Ionomycin; for division index of B-cells: FIG. 2c; for expansion index of B-cells: FIG. 2d
Procedure: as §3, §4, §6, §5

[8] = test system: Hepa1-6 cell line; experiment: Cellular redox potential (AlamarBlue); type: cell-based; conditions: Hepa1-6, 24 h, FIG. 1c
Procedure: as §1, §2
Cells were treated for 24 h with the test substances or controls ([…] DMSO, 10 μM FCCP and 10 μM oligomycin). […] Fluorescence was measured at ex/em: 550/590 nm. […]

[9] = stimulation with anti-CD3/CD28 antibodies, FIGS. 2e
[10] = stimulation with cytokines IL-2/IL-7, FIGS. 2e

C[C@]12CCC(=O)C[C@H]1N1CCc3c([nH]c4ccccc34)[C@@H]1CO2 [1q, (2aS,6aR,14bR)-2a-Methyl-3,4,6,6a,8,9,14,14b-octahydro-1H-benzo[5′,6′][1,4]oxazino[4′,3′:1,2]pyrido[3,4-k]indol-5(2aH)-one] was tested, and the “reduce ΔΨm” value [1] was 77%, the Emax at 1 µM [1] was 90% and the cytotoxic necrosis [2] was “without noticeable cytotoxic necrosis”. The “deplete ATP production” value [3] was no more than 50%, the “activation-induced proliferation of isolated T-cells” value (“activation-induced proliferation” below) [4, 9] was “did not significantly affect” and the “activation-induced proliferation” value [4, 10] was “did not significantly affect”. For the same compound, the “suppression of cells proliferation” value [5] was “potent suppression”, the “division index of T-cells” value [6] was “non-significant effects” and the “expansion index of T-cells” value [6] was “non-significant effects”. The “division index of B-cells” value [7] was “non-significant effects”, the “expansion index of B-cells” value [7] was “non-significant effects” and the “effect on redox potential” value [8] was “increase; also recorded: strongly affected”.
C[C@]12C=CC(=O)C[C@H]1N1CCc3c([nH]c4ccccc34)[C@@H]1CO2 [compound 1d, (2aS,6aR,14bR)-2a-Methyl-6,6a,8,9,14,14b-hexahydro-1H-benzo[5′,6′][1,4]oxazino[4′,3′:1,2]pyrido[3,4-b]indol-5(2 aH)-one] was tested, and the “reduce ΔΨm” value [1] was 82%, the Emax at 1 µM [1] was 82% and the cytotoxic necrosis [2] was “without noticeable cytotoxic necrosis”. For the same compound, the “deplete ATP production” value [3] was “up to 60%”, the “activation-induced proliferation” value [4, 9] was “did not significantly affect” and the “activation-induced proliferation” value [4, 10] was “did not significantly affect”. The “rank in diminishing the proliferation of Hepa1-6” value ([5]; Hepa1-6, 1d versus 1q) was “most potent”, the “suppression of cells proliferation” value [5] was “potent suppression” and the “division index of T-cells” value [6] was “non-significant effects”. For the same compound, the “expansion index of T-cells” value [6] was “non-significant effects”, the “division index of B-cells” value [7] was “non-significant effects” and the “expansion index of B-cells” value [7] was “non-significant effects”. For the same compound, the “effect on redox potential” value [8] was “increase; also recorded: strongly affected”.

Reference: US12269821B2, “Discovery of novel first in class nature-inspired compounds targeting the mitochondrial function and pharmaceutical composition thereof” (University of Sharjah, priority 2018, dated 2025)
